Reference: PMC5097156, “Potent and selective chemical probe of hypoxic signalling downstream of HIF-α hydroxylation via VHL inhibition” (Nature Communications, 2016)

Experiments:
Assay in all cases: biochemical
Set-up in all cases: CEREP ExpresSProfile competition binding, remaining control specific binding of reference compound
Conditions in all cases: radioligand binding; read-out: Mean % of control specific binding (±sd)
[1] = biological target: T1, CB1 (h) (Homo sapiens, UniProt P21554)
T1 construct: gene CNR1
T1 sequence (P21554 whole entry): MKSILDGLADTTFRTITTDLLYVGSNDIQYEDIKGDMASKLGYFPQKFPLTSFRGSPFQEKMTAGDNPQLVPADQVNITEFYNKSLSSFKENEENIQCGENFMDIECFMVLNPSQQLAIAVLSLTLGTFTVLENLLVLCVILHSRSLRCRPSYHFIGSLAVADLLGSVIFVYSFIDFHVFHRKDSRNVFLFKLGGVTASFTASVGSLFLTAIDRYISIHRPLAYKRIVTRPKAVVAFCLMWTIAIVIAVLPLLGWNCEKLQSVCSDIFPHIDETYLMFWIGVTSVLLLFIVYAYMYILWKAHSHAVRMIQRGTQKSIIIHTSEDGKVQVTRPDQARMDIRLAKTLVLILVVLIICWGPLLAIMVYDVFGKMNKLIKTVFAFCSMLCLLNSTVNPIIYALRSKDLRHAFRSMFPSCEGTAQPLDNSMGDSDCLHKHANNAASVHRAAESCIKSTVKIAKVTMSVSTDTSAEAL

[2] = biological target: T2, H1 (h) (Homo sapiens, UniProt P35367)
T2 construct: gene HRH1

[3] = biological target: T3, Y2 (h) (Homo sapiens, UniProt P49146)
T3 construct: gene NPY2R
T3 sequence (P49146 whole entry): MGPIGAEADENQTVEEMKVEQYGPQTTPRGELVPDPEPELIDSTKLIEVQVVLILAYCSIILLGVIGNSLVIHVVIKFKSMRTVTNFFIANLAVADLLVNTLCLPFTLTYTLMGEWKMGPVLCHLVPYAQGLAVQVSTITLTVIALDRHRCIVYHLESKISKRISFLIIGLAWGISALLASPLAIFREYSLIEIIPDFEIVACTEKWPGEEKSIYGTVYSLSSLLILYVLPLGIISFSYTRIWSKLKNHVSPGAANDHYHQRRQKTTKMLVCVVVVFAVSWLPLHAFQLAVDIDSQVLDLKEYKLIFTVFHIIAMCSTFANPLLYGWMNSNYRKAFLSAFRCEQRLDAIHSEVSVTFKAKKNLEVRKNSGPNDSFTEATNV

[4] = biological target: T4, M2 (h) (Homo sapiens, UniProt P08172)
T4 construct: gene CHRM2

[5] = biological target: T5, 5-HT3 (h) (Homo sapiens, UniProt P46098)
T5 construct: gene HTR3A
T5 sequence (P46098 whole entry): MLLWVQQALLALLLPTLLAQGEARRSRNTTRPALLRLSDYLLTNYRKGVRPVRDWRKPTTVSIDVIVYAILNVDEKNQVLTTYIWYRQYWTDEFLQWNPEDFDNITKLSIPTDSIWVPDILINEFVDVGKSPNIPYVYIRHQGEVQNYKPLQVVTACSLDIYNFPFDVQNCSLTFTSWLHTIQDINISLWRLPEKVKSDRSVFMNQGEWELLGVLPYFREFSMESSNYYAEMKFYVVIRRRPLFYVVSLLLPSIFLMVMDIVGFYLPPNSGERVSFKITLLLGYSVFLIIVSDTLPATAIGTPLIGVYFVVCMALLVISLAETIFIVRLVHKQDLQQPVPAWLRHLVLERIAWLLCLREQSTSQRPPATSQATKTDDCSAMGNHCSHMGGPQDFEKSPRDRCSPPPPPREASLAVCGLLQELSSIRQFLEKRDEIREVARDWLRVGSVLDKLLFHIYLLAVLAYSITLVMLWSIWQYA

[6] = biological target: T6, B2 (h) (Homo sapiens, UniProt P30411)
T6 construct: gene BDKRB2
T6 sequence (P30411 whole entry): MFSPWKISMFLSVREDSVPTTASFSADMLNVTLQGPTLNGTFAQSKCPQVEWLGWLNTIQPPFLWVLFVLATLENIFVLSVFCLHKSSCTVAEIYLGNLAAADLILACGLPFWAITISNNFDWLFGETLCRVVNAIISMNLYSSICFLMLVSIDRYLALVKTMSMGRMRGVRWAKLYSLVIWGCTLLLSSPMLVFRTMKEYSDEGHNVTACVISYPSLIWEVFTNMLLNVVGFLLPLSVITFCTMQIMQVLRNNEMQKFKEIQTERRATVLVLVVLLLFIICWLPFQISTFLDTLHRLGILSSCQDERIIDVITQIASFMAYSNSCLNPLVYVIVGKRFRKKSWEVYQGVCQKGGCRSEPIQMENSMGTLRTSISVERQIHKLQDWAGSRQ

[7] = biological target: T7, V1a (h) (Homo sapiens, UniProt P37288)
T7 construct: gene AVPR1A

[8] = biological target: T8, NTS1 (NT1) (h) (Homo sapiens, UniProt P30989)
T8 construct: gene NTSR1

[9] = biological target: CXCR2 (IL-8B) (h) (Homo sapiens, UniProt P25025)
[10] = biological target: T9, D2S (h) (Homo sapiens, UniProt P14416)
T9 construct: gene DRD2; D2S short isoform

[11] = biological target: T10, norepinephrine transporter (h) (Homo sapiens, UniProt P23975)
T10 construct: gene SLC6A2
T10 sequence (P23975 whole entry): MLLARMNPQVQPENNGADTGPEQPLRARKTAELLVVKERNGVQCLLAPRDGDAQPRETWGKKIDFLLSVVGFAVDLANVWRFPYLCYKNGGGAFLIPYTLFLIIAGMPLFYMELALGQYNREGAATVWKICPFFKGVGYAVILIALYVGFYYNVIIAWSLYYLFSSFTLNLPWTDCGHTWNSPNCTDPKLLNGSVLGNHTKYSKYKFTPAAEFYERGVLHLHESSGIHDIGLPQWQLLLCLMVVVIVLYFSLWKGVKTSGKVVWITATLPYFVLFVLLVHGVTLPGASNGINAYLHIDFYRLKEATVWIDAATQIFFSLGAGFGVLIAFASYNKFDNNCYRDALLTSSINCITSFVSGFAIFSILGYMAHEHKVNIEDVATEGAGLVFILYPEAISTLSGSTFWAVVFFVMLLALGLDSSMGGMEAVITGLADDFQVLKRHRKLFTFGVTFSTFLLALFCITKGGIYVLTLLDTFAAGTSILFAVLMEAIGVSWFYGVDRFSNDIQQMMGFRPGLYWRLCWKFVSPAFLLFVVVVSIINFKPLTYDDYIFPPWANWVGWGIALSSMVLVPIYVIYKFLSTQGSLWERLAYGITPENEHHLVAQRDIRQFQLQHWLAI

[12] = biological target: T11, Y1 (h) (Homo sapiens, UniProt P25929)
T11 construct: gene NPY1R

[13] = biological target: T12, 5-HT7 (h) (Homo sapiens, UniProt P34969)
T12 construct: gene HTR7

[14] = biological target: T13, D1 (h) (Homo sapiens, UniProt P21728)
T13 construct: gene DRD1

[15] = biological target: T14, NOP (ORL1) (h) (Homo sapiens, UniProt P41146)
T14 construct: gene OPRL1

[16] = biological target: T15, dopamine transporter (h) (Homo sapiens, UniProt Q01959)
T15 construct: gene SLC6A3

[17] = biological target: CCR1 (h) (Homo sapiens, UniProt P32246)
[18] = biological target: T16, A3 (h) (Homo sapiens, UniProt P0DMS8)
T16 construct: gene ADORA3
T16 sequence (P0DMS8 whole entry): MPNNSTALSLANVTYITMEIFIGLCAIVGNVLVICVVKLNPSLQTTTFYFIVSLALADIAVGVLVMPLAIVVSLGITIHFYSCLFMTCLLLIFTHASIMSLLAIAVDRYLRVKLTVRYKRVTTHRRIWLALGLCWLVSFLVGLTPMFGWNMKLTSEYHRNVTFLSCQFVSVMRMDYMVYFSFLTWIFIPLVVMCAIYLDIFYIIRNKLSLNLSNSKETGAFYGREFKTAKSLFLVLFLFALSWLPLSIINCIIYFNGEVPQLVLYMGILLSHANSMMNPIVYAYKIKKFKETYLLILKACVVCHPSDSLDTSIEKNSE

[19] = biological target: T17, M3 (h) (Homo sapiens, UniProt P20309)
T17 construct: gene CHRM3
T17 sequence (P20309 whole entry): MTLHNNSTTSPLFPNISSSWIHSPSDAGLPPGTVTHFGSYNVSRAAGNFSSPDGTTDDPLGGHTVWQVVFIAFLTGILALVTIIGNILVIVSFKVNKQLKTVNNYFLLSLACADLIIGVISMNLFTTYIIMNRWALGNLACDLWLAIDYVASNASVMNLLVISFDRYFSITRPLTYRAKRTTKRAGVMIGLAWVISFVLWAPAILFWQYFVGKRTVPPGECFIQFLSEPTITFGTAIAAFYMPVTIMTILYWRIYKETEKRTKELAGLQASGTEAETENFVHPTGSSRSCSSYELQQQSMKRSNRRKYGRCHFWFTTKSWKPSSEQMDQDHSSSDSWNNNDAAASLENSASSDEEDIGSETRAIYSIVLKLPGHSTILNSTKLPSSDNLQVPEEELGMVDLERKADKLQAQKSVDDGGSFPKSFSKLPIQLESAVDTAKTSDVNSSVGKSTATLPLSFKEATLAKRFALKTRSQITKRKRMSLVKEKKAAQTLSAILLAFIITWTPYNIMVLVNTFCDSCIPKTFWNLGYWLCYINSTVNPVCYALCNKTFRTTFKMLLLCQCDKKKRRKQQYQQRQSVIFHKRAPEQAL

[20] = biological target: T18, MC4 (h) (Homo sapiens, UniProt P32245)
T18 construct: gene MC4R
T18 sequence (P32245 whole entry): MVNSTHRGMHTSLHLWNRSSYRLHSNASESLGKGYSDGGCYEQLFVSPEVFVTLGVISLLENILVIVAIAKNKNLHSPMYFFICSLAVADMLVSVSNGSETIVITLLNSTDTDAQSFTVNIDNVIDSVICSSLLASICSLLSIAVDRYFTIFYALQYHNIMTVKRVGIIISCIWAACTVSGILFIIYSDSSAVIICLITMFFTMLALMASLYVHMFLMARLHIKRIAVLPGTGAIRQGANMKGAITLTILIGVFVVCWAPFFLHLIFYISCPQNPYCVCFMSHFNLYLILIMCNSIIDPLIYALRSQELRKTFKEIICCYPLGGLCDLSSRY

[21] = biological target: T19, A1 (h) (Homo sapiens, UniProt P30542)
T19 construct: gene ADORA1
T19 sequence (P30542 whole entry): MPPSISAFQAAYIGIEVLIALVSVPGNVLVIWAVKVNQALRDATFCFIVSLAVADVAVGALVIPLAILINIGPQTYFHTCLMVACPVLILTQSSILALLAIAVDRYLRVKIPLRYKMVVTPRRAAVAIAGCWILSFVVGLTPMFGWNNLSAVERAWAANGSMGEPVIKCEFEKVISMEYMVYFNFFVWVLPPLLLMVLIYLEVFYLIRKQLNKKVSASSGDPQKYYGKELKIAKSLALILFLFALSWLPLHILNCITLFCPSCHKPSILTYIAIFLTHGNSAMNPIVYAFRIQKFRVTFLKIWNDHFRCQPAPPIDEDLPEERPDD

[22] = biological target: T20, beta 1 (h) (Homo sapiens, UniProt P08588)
T20 construct: gene ADRB1

[23] = biological target: T21, ETA (h) (Homo sapiens, UniProt P25101)
T21 construct: gene EDNRA
T21 sequence (P25101 whole entry): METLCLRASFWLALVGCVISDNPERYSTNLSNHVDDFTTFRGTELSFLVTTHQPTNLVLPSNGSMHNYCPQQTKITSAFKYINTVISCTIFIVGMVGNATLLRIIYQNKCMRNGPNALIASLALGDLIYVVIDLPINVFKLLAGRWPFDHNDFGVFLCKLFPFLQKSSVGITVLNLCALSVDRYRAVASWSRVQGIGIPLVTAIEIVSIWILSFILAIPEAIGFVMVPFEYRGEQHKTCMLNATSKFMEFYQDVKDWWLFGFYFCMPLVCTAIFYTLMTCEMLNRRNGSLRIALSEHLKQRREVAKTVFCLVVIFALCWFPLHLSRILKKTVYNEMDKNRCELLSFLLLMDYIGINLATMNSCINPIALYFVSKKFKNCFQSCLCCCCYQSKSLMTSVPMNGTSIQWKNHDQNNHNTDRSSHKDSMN

[24] = biological target: T22, NK3 (h) (Homo sapiens, UniProt P29371)
T22 construct: gene TACR3
T22 sequence (P29371 whole entry): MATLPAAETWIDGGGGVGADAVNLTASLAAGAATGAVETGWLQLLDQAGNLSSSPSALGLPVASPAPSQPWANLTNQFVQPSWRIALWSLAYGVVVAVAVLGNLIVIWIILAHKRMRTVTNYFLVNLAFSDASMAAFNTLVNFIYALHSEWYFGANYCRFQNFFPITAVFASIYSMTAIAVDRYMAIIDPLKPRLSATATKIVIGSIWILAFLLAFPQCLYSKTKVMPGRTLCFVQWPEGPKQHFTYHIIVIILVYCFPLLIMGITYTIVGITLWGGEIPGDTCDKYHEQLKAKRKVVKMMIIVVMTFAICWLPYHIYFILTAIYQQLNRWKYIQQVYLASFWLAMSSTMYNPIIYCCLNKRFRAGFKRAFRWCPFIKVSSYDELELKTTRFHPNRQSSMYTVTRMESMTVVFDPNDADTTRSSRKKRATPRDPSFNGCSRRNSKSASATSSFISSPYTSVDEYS

[25] = biological target: T23, kappa (KOP) (Rattus norvegicus, UniProt P34975)
T23 construct: gene Oprk1

`Cc1ncsc1-c1ccc(CNC(=O)[C@@H]2C[C@@H](O)CN2C(=O)[C@@H](NC(=O)C2(C#N)CC2)C(C)(C)C)cc1` [VH298] was tested. Which remaining binding at 50 µM [1] did it give?
The remaining binding at 50 µM was 115%.

What about the remaining binding at 50 µM [2] of the same molecule?
The remaining binding at 50 µM was 101%.

What about the remaining binding at 50 µM [3] of the same molecule?
The remaining binding at 50 µM was 97%.

What about the remaining binding at 50 µM [4] of the same molecule?
The remaining binding at 50 µM was 94%.

What about the remaining binding at 50 µM [5] of the same molecule?
Its remaining binding at 50 µM is 92%.

And the remaining binding at 50 µM [6]?
The remaining binding at 50 µM was 101%.

And the remaining binding at 50 µM [7]?
Its remaining binding at 50 µM is 95%.

What about the remaining binding at 50 µM [8] of the same molecule?
Its remaining binding at 50 µM is 103%.

What about the remaining binding at 50 µM [9] of the same molecule?
Its remaining binding at 50 µM is 102%.

And the remaining binding at 50 µM [10]?
Its remaining binding at 50 µM is 91%.

And the remaining binding at 50 µM [11]?
Its remaining binding at 50 µM is 96%.

And the remaining binding at 50 µM [12]?
Its remaining binding at 50 µM is 106%.

What about the remaining binding at 50 µM [13] of the same molecule?
Its remaining binding at 50 µM is 99%.

What about the remaining binding at 50 µM [14] of the same molecule?
The remaining binding at 50 µM was 103%.

What about the remaining binding at 50 µM [15] of the same molecule?
Its remaining binding at 50 µM is 92%.

What about the remaining binding at 50 µM [16] of the same molecule?
Its remaining binding at 50 µM is 90%.

What about the remaining binding at 50 µM [17] of the same molecule?
The remaining binding at 50 µM was 111%.

What about the remaining binding at 50 µM [18] of the same molecule?
The remaining binding at 50 µM was 55%.

What about the remaining binding at 50 µM [19] of the same molecule?
Its remaining binding at 50 µM is 95%.

What about the remaining binding at 50 µM [20] of the same molecule?
The remaining binding at 50 µM was 98%.

And the remaining binding at 50 µM [21]?
Its remaining binding at 50 µM is 90%.

What about the remaining binding at 50 µM [22] of the same molecule?
Its remaining binding at 50 µM is 83%.

And the remaining binding at 50 µM [23]?
Its remaining binding at 50 µM is 88%.

What about the remaining binding at 50 µM [24] of the same molecule?
Its remaining binding at 50 µM is 94%.

What about the remaining binding at 50 µM [25] of the same molecule?
Its remaining binding at 50 µM is 92%.
